Measurements reported in patent US20250333388A1, “OXADIAZOLONE COMPOUNDS AND HERBICIDAL COMPOSITIONS AND USES THEREOF” (SHANDONG BINNONG TECHNOLOGY CO., LTD., priority 2023, published 2025).

Columns and labels:
Format in all cases: in vivo
barnyard grass = assay: Test of herbicidal activity, post-seedling stem and leaf spray in greenhouse, barnyard grass; settings: for herbicidal activity against barnyard grass compared with Control compounds A, B and C: at different doses, summary of Table 5; for Barnyard grass (%) control effect: post-seedling stem and leaf spray
Procedure: (§1) Seeds of broadleaf weeds (abutilon, Solanum nigrum) or gramineous weeds (crabgrass, barnyard grass) were sown into nutrient soil in plastic cups, respectively, and then covered with soil, compacted, watered, and further cultivated in a greenhouse by conventional methods. The stems and leaves of the weeds were sprayed when the weeds reached the 2- to 3-leaf stage. The test compounds of the present application were dissolved in acetone respectively, followed by addition of Tween 80. The solution was diluted with a certain amount of water to a certain solubility, and then sprayed onto the plants using a spray tower. The test was repeated three times. After drying naturally in the shade, the plants were put in a greenhouse and managed according to conventional methods. The growth and development of weeds were observed, and the control effect of the test agent on weeds was checked visually periodically, which was expressed by 0-100%, with “0” representing no control effect, and “100%” representing complete killing or severe inhibition.

crabgrass = assay: Test of herbicidal activity, post-seedling stem and leaf spray in greenhouse, crabgrass; settings: for herbicidal activity against crabgrass compared with Control compounds A, B and C: at different doses, summary of Table 5; for Crabgrass (%) control effect: post-seedling stem and leaf spray
Procedure: as §1

Solanum nigrum = assay: Test of herbicidal activity, post-seedling stem and leaf spray in greenhouse, Solanum nigrum; settings: for herbicidal activity against Solamum nigrum compared with Control compounds A, B and C: at different doses, summary of Table 5; for Solanum nigrum (%) control effect: post-seedling stem and leaf spray
Procedure: as §1

rice = assay: Safety testing on rice, stem and leaf spray in greenhouse; settings: for inhibitory effect on rice (crop safety): at different doses, as compared to Control compounds A, B, and C, summary of Table 6; for Rice (%) safety (crop damage): stem and leaf spray
Procedure: (§2) The seeds of corn and rice were sown into nutrient soil in plastic cups, respectively, then covered with soil, compacted, watered, and further cultivated in a greenhouse by conventional methods. The stems and leaves of the crops were sprayed when the crops reached the 2- to 3-leaf stage. The test compounds of the present application were dissolved in acetone, followed by addition of Tween 80. The solution was then diluted with a certain amount of water to a certain solubility, and sprayed onto the plants using a spray tower. The test was repeated three times. After drying naturally in the shade, the plants were put in a greenhouse and managed according to conventional methods. The growth and development of corn and rice were observed, and the safety of the test agent on corn and rice was checked visually periodically. A safety grading standard was represented by 0-100%, with “O” representing no damage to crops, and “100%” representing complete killing or severe inhibition of crops.

corn = assay: Safety testing on corn, stem and leaf spray in greenhouse; settings: for inhibitory effect on corn (crop safety): at different doses, as compared to Control compounds A, B, and C, summary of Table 6; for Corn (%) safety (crop damage): stem and leaf spray
Procedure: as §2

abutilon = assay: Test of herbicidal activity, post-seedling stem and leaf spray in greenhouse, abutilon; settings: for herbicidal activity against abutilon compared with Control compounds A, B and C: at different doses, summary of Table 5; for Abutilon (%) control effect: post-seedling stem and leaf spray
Procedure: as §1

[1] = dose 300 g a.i/ha, 0 = no damage to crops, 100% = complete killing or severe inhibition
[2] = dose 300 g a.i/ha, 0 = no control effect, 100% = complete killing or severe inhibition

Compound: Cc1nn(Cc2c(S(C)(=O)=O)ccc(C(=O)c3c(C4CC4)nn(C)c3OC(=O)c3c(C)nn(C)c3Cl)c2Cl)c(=O)o1 [Compound 201]
- herbicidal activity against barnyard grass compared with Control compounds A, B and C (barnyard grass): better herbicidal activities
- Barnyard grass (%) control effect (barnyard grass; dose 37.5 g a.i/ha): 55%
- Barnyard grass (%) control effect (barnyard grass; dose 75 g a.i/ha): 75%
- Barnyard grass (%) control effect (barnyard grass; dose 150 g a.i/ha): 95%
- Barnyard grass (%) control effect (barnyard grass; dose 300 g a.i/ha): 100%
- herbicidal activity against crabgrass compared with Control compounds A, B and C (crabgrass): better herbicidal activities
- Crabgrass (%) control effect (crabgrass; dose 37.5 g a.i/ha): 45%
- Crabgrass (%) control effect (crabgrass; dose 75 g a.i/ha): 65%
- Crabgrass (%) control effect (crabgrass; dose 150 g a.i/ha): 80%
- Crabgrass (%) control effect (crabgrass; dose 300 g a.i/ha): 90%
- herbicidal activity against Solamum nigrum compared with Control compounds A, B and C (Solanum nigrum): better herbicidal activities
- Solanum nigrum (%) control effect (Solanum nigrum; dose 37.5 g a.i/ha): 55%
- Solanum nigrum (%) control effect (Solanum nigrum; dose 75 g a.i/ha): 75%
- Solanum nigrum (%) control effect (Solanum nigrum; dose 150 g a.i/ha): 95%
- Solanum nigrum (%) control effect (Solanum nigrum; dose 300 g a.i/ha): 100%
- inhibitory effect on rice (crop safety) (rice): no significant inhibitory effect
- Rice (%) safety (crop damage) (rice; dose 37.5 g a.i/ha): 0%
- Rice (%) safety (crop damage) (rice; dose 75 g a.i/ha): 0%
- Rice (%) safety (crop damage) (rice; dose 150 g a.i/ha): 0%
- Rice (%) safety (crop damage) (rice; dose 300 g a.i/ha): 2%
- inhibitory effect on corn (crop safety) (corn): no significant inhibitory effect
- Corn (%) safety (crop damage) (corn; dose 37.5 g a.i/ha): 0%
- Corn (%) safety (crop damage) (corn; dose 75 g a.i/ha): 0%
- Corn (%) safety (crop damage) (corn; dose 150 g a.i/ha): 0%
- Corn (%) safety (crop damage) (corn; [1]): 0%
- herbicidal activity against abutilon compared with Control compounds A, B and C (abutilon): better herbicidal activities
- Abutilon (%) control effect (abutilon; dose 37.5 g a.i/ha): 55%
- Abutilon (%) control effect (abutilon; dose 75 g a.i/ha): 80%
- Abutilon (%) control effect (abutilon; dose 150 g a.i/ha): 92%
- Abutilon (%) control effect (abutilon; [2]): 98%

Compound: Cc1nn(C)c(O)c1C(=O)c1ccc(S(C)(=O)=O)cc1Cl [Control compound B, reference compound]
- Barnyard grass (%) control effect (barnyard grass; dose 37.5 g a.i/ha): 10%
- Barnyard grass (%) control effect (barnyard grass; dose 75 g a.i/ha): 25%
- Barnyard grass (%) control effect (barnyard grass; dose 150 g a.i/ha): 45%
- Barnyard grass (%) control effect (barnyard grass; dose 300 g a.i/ha): 55%
- Crabgrass (%) control effect (crabgrass; dose 37.5 g a.i/ha): 5%
- Crabgrass (%) control effect (crabgrass; dose 75 g a.i/ha): 15%
- Crabgrass (%) control effect (crabgrass; dose 150 g a.i/ha): 40%
- Crabgrass (%) control effect (crabgrass; dose 300 g a.i/ha): 45%
- Solanum nigrum (%) control effect (Solanum nigrum; dose 37.5 g a.i/ha): 40%
- Solanum nigrum (%) control effect (Solanum nigrum; dose 75 g a.i/ha): 50%
- Solanum nigrum (%) control effect (Solanum nigrum; dose 150 g a.i/ha): 65%
- Solanum nigrum (%) control effect (Solanum nigrum; dose 300 g a.i/ha): 70%
- Rice (%) safety (crop damage) (rice; dose 37.5 g a.i/ha): 10%
- Rice (%) safety (crop damage) (rice; dose 75 g a.i/ha): 20%
- Rice (%) safety (crop damage) (rice; dose 150 g a.i/ha): 40%
- Rice (%) safety (crop damage) (rice; dose 300 g a.i/ha): 55%
- Corn (%) safety (crop damage) (corn; dose 37.5 g a.i/ha): 0%
- Corn (%) safety (crop damage) (corn; dose 75 g a.i/ha): 0%
- Corn (%) safety (crop damage) (corn; dose 150 g a.i/ha): 0%
- Corn (%) safety (crop damage) (corn; [1]): 2%
- Abutilon (%) control effect (abutilon; dose 37.5 g a.i/ha): 45%
- Abutilon (%) control effect (abutilon; dose 75 g a.i/ha): 55%
- Abutilon (%) control effect (abutilon; dose 150 g a.i/ha): 75%
- Abutilon (%) control effect (abutilon; [2]): 85%

Compound: CCS(=O)(=O)c1ccc(C(=O)c2c(C)nn(C)c2OC(=O)c2cc(C)nn2C)c(Cl)c1Cn1nc(C)oc1=O [Compound 224]
- herbicidal activity against barnyard grass compared with Control compounds A, B and C (barnyard grass): better herbicidal activities
- Barnyard grass (%) control effect (barnyard grass; dose 37.5 g a.i/ha): 50%
- Barnyard grass (%) control effect (barnyard grass; dose 75 g a.i/ha): 70%
- Barnyard grass (%) control effect (barnyard grass; dose 150 g a.i/ha): 85%
- Barnyard grass (%) control effect (barnyard grass; dose 300 g a.i/ha): 88%
- herbicidal activity against crabgrass compared with Control compounds A, B and C (crabgrass): better herbicidal activities
- Crabgrass (%) control effect (crabgrass; dose 37.5 g a.i/ha): 45%
- Crabgrass (%) control effect (crabgrass; dose 75 g a.i/ha): 65%
- Crabgrass (%) control effect (crabgrass; dose 150 g a.i/ha): 80%
- Crabgrass (%) control effect (crabgrass; dose 300 g a.i/ha): 84%
- herbicidal activity against Solamum nigrum compared with Control compounds A, B and C (Solanum nigrum): better herbicidal activities
- Solanum nigrum (%) control effect (Solanum nigrum; dose 37.5 g a.i/ha): 50%
- Solanum nigrum (%) control effect (Solanum nigrum; dose 75 g a.i/ha): 70%
- Solanum nigrum (%) control effect (Solanum nigrum; dose 150 g a.i/ha): 90%
- Solanum nigrum (%) control effect (Solanum nigrum; dose 300 g a.i/ha): 93%
- inhibitory effect on rice (crop safety) (rice): no significant inhibitory effect
- Rice (%) safety (crop damage) (rice; dose 37.5 g a.i/ha): 0%
- Rice (%) safety (crop damage) (rice; dose 75 g a.i/ha): 0%
- Rice (%) safety (crop damage) (rice; dose 150 g a.i/ha): 2%
- Rice (%) safety (crop damage) (rice; dose 300 g a.i/ha): 5%
- inhibitory effect on corn (crop safety) (corn): no significant inhibitory effect
- Corn (%) safety (crop damage) (corn; dose 37.5 g a.i/ha): 0%
- Corn (%) safety (crop damage) (corn; dose 75 g a.i/ha): 0%
- Corn (%) safety (crop damage) (corn; dose 150 g a.i/ha): 0%
- Corn (%) safety (crop damage) (corn; [1]): 2%
- herbicidal activity against abutilon compared with Control compounds A, B and C (abutilon): better herbicidal activities
- Abutilon (%) control effect (abutilon; dose 37.5 g a.i/ha): 55%
- Abutilon (%) control effect (abutilon; dose 75 g a.i/ha): 80%
- Abutilon (%) control effect (abutilon; dose 150 g a.i/ha): 90%
- Abutilon (%) control effect (abutilon; [2]): 92%

Compound: CS(=O)(=O)c1ccc(C(=O)C2C(=O)CCCC2=O)c(Cl)c1 [Control compound A, reference compound]
- Barnyard grass (%) control effect (barnyard grass; dose 37.5 g a.i/ha): 10%
- Barnyard grass (%) control effect (barnyard grass; dose 75 g a.i/ha): 30%
- Barnyard grass (%) control effect (barnyard grass; dose 150 g a.i/ha): 50%
- Barnyard grass (%) control effect (barnyard grass; dose 300 g a.i/ha): 60%
- Crabgrass (%) control effect (crabgrass; dose 37.5 g a.i/ha): 5%
- Crabgrass (%) control effect (crabgrass; dose 75 g a.i/ha): 25%
- Crabgrass (%) control effect (crabgrass; dose 150 g a.i/ha): 45%
- Crabgrass (%) control effect (crabgrass; dose 300 g a.i/ha): 50%
- Solanum nigrum (%) control effect (Solanum nigrum; dose 37.5 g a.i/ha): 50%
- Solanum nigrum (%) control effect (Solanum nigrum; dose 75 g a.i/ha): 70%
- Solanum nigrum (%) control effect (Solanum nigrum; dose 150 g a.i/ha): 90%
- Solanum nigrum (%) control effect (Solanum nigrum; dose 300 g a.i/ha): 95%
- Rice (%) safety (crop damage) (rice; dose 37.5 g a.i/ha): 10%
- Rice (%) safety (crop damage) (rice; dose 75 g a.i/ha): 25%
- Rice (%) safety (crop damage) (rice; dose 150 g a.i/ha): 45%
- Rice (%) safety (crop damage) (rice; dose 300 g a.i/ha): 60%
- Corn (%) safety (crop damage) (corn; dose 37.5 g a.i/ha): 0%
- Corn (%) safety (crop damage) (corn; dose 75 g a.i/ha): 0%
- Corn (%) safety (crop damage) (corn; dose 150 g a.i/ha): 0%
- Corn (%) safety (crop damage) (corn; [1]): 5%
- Abutilon (%) control effect (abutilon; dose 37.5 g a.i/ha): 50%
- Abutilon (%) control effect (abutilon; dose 75 g a.i/ha): 80%
- Abutilon (%) control effect (abutilon; dose 150 g a.i/ha): 98%
- Abutilon (%) control effect (abutilon; [2]): 100%

Compound: CS(=O)(=O)c1ccc(C(=O)C2C(=O)CCCC2=O)c(Cl)c1CN1CCOCC1 [Control compound C, reference compound]
- Barnyard grass (%) control effect (barnyard grass; dose 37.5 g a.i/ha): 35%
- Barnyard grass (%) control effect (barnyard grass; dose 75 g a.i/ha): 60%
- Barnyard grass (%) control effect (barnyard grass; dose 150 g a.i/ha): 70%
- Barnyard grass (%) control effect (barnyard grass; dose 300 g a.i/ha): 75%
- Crabgrass (%) control effect (crabgrass; dose 37.5 g a.i/ha): 20%
- Crabgrass (%) control effect (crabgrass; dose 75 g a.i/ha): 55%
- Crabgrass (%) control effect (crabgrass; dose 150 g a.i/ha): 65%
- Crabgrass (%) control effect (crabgrass; dose 300 g a.i/ha): 70%
- Solanum nigrum (%) control effect (Solanum nigrum; dose 37.5 g a.i/ha): 40%
- Solanum nigrum (%) control effect (Solanum nigrum; dose 75 g a.i/ha): 50%
- Solanum nigrum (%) control effect (Solanum nigrum; dose 150 g a.i/ha): 65%
- Solanum nigrum (%) control effect (Solanum nigrum; dose 300 g a.i/ha): 85%
- Rice (%) safety (crop damage) (rice; dose 37.5 g a.i/ha): 30%
- Rice (%) safety (crop damage) (rice; dose 75 g a.i/ha): 55%
- Rice (%) safety (crop damage) (rice; dose 150 g a.i/ha): 75%
- Rice (%) safety (crop damage) (rice; dose 300 g a.i/ha): 85%
- Corn (%) safety (crop damage) (corn; dose 37.5 g a.i/ha): 0%
- Corn (%) safety (crop damage) (corn; dose 75 g a.i/ha): 0%
- Corn (%) safety (crop damage) (corn; dose 150 g a.i/ha): 2%
- Corn (%) safety (crop damage) (corn; [1]): 5%
- Abutilon (%) control effect (abutilon; dose 37.5 g a.i/ha): 45%
- Abutilon (%) control effect (abutilon; dose 75 g a.i/ha): 55%
- Abutilon (%) control effect (abutilon; dose 150 g a.i/ha): 70%
- Abutilon (%) control effect (abutilon; [2]): 90%
